Assay results: US20220113299A1, “METHOD OF DYNAMICS ANALYSIS FOR COMPOUND IN CELL” (Hitachi High-Tech Corporation, priority 2019, published 2022)

System: hepatocytes
Test: kinetic analysis of compound efflux in cultured hepatocytes (Test Sections 1 to 3, fluorescence measurement)
Format: in vitro ADME, rat
Details: 30 minutes; for ratio of the amount of compound excreted into the bile duct to the totality of compound taken up into the cells (BiRD): (B1-B2)/(C1+C2), EGTA disrupted vs maintained system, 37° C.; for ratio of the amount of compound excreted into the bile duct to the totality of compound taken up into the cells (BiRD) / ratio of the amount of compound excreted via transporter to the amount of compound excreted basolaterally (RexEMTP): pattern 1; for ratio of the amount of compound excreted via transporter to the amount of compound excreted basolaterally (RexEMTP): (B2-B3)/B2, cultured hepatocytes, 37° C. vs 4° C.; for Sup fraction (fraction of the first basolateral efflux), index for tendency to remain or not to remain in the cells: pattern 2: sum of Steps 4, 5 and 6 = 100%, Step 4, 37° C., in %
Description: Hepatocytes were prepared by in-situ collagenase perfusion method. The details are as follows. A rat (5-6 week-old) is anesthetized with pentobarbital and undergoes laparotomy, followed by insertion of a catheter into the portal vein and injection of a preperfusion solution (a Ca^2+ and Mg^2+ free Hanks' solution containing glycol ether diaminetetraacetic acid (EGTA)). After checking that blood is sufficiently removed from the liver, the perfusion is stopped. Perfusion is performed with the perfusate being changed to a collagenase solution. In this embodiment, the perfusion operates with a Hanks' solution containing 0.05% collagenase, but the collagenase solution is not limited to this. After checking that the tissue between the cells has been digested by collagenase, the perfusion is stopped. The liver is excised, sliced in a cooled Hanks' solution, and separated into cells by pipetting. Damaged hepatocytes are removed by centrifugation at 500 G for 5 minutes with an isotonic Percoll solution. The viability of the resulting hepatocytes is determined by the trypan blue-exclusion test. Hepatocytes having a viability of 85% or more are used for culture. Here, hepatocytes having a viability of 85% or more are used for culture, but such culture is not necessarily limited to the condition. In addition, the preparation of hepatocytes is not necessarily limited to that by in situ collagenase perfusion method. The hepatocytes to be used are not limited to those derived from a rat, and the strain of rat is not limited. This embodiment employs hepatocytes, but cells are not limited to this.
(3) Cells prepared by a procedure as above are suspended in a medium. The hepatocytes are suspended at a density of 5×10^5 cells/mL in the medium and plated onto a commercially available culture dish coated with collagen. The density upon plating, the medium, and the culture plate 001 are not limited. The culture plate is illustrated in FIG. 7. A 24-well culture plate having 24 culture regions (wells, 002) is here illustrated, but the culture plate is not limited to this, and any of containers in other shapes may be used as long as it can contain predetermined cells. After plating, culture is started under conditions of 5% CO2 and 37° C. using a CO2 incubator. After 18 hours or more, the first medium change is performed. This embodiment employs a FCS-medium, which is a medium resulting from removal of FCS from the medium (10% FCS+) and supplementation with Matrigel, as the medium to be used for culture 18 hours after the plating. However, the medium can be any medium. After this, medium change with the medium (FCS−) is performed every 24 hours. As described later, testing is performed under three different conditions in Step 5 (Test Sections 1, 2, and 3; described in detail in Step 5), three independent culture plates under the same conditions are prepared at this point. In Steps 0 to 4 and Step 5, the same testing operations are performed in all the three test sections.
The culture supernatant of the cells cultured in Step 0 for 4 days is removed, and 400 μL of Hanks' solution is added as a buffer. The cells are incubated at 37° C. for 10 minutes (FIG. 2, Step 1). The type and amount of buffer are not limited.
The buffer is removed, and then 200 μL of […] carboxydichlorofluorescein (CDF; a fluorescent reagent) is fed to the well. The plate is incubated at 37° C. for 30 minutes and then maintained at 4° C. for 5 minutes (FIG. 2, Step 2). The type, concentration, and amount of the reagent are not limited. CDF emits fluorescence and can therefore be easily quantified as a model reagent with a plate reader. The amount of administration, 200 μL, was chosen so that the cells as a whole in the well would be immersed in the reagent. The concentration of CDF may be a concentration conventionally used for a fluorescence assay of cells. This concentration is preferably applied also as an amount of the reagent for the detection with a plate reader. […]

Substance | ratio of the amount of compound excreted into the bile duct to the totality of compound taken up into the cells (BiRD) | ratio of the amount of compound excreted via transporter to the amount of compound excreted basolaterally (RexEMTP) | Sup fraction (fraction of the first basolateral efflux), index for tendency to remain or not to remain in the cells
Rhodamine 123 | 4.92 | 52.52 | 39.29
carboxydichlorofluorescein [CDF] | 18.58 | 41.08 | 70.82
